The subject of data set [1] is A549. Also on record: method as in PMID 34939695. The conditions noted are these: previous study of the authors; cited from earlier work.
The subject of data set [2] is HepG2. More on the design: method as in PMID 34939695. The conditions noted are these: previous study of the authors; cited from earlier work.
In data set [3] the test system is A549. Also on record: method as in doi:10.1007/s00706-021-02886-5. Particulars: cited from earlier work.
For data set [4], the system named is HepG2. Also on record: method as in doi:10.1007/s00706-021-02886-5. Particulars: cited from earlier work.
In data set [5] the test system is colorectal carcinoma (HCT116). As to the kind of experiment: Cytotoxic MTT assay, HCT116. The format is cell-based, human. The conditions noted are these: Homo sapiens, HCT-116; MTT, 48 h treatment. The procedure: (§1) MTT protocol was performed to study the viability of cells after treatment with the tested compounds. The studied cell lines (A549 and HCT116) were cultured and grown in RPMI‐1640 media, while HFB4 cells were reserved in DMEM‐F12 media. Both media were supplemented with 10% FBS, 1% L‐glutamine, and 1% antibiotic–antimycotic mixture. The cell lines were grown at conditions of 37 °C and 5% CO2. 10 × 10^3 of A549, and HCT116 cells and the same count of normal melanocytes (HFB4) were cultured in a 96‐well plate. The selected cultured cells were kept at 37°C and 5% CO2 overnight. Then, the medium was discarded after 24 h of incubation, and 100 µL from different concentrations of the studied compounds dissolved in fresh medium without serum, with final concentrations of 100, 50, 25, 12.5, 6.25, 3.125, 1.56, and 0.78 µg/mL was added. The treated cells were then incubated for 48 h. After that, 50 µL of MTT was added into each well for 4 h for the formazan crystals to be formed. Finally, 200 µl of 10% sodium dodecyl sulphate (SDS) was added to each well, and plates were kept at room temperature overnight to allow the reaction to be stopped. The optical density at 575 nm was read using a microplate multi-well reader, and the percentage of cell viability was calculated. The dose–response curve was drawn to calculate the IC50 values for each compound using the prism GraphPad 5 program, [84]. 5 Fluorouracil, a commercial anticancer drug was used as a reference drug (positive control). Negative untreated cell control was used in this assay.

Data set [6] has as its system normal human skin melanocyte cell line (HFB4). As to the kind of experiment: Cytotoxic MTT assay, normal HFB4 cells. It is filed as cell-based. The conditions noted are these: 48 h treatment. On the procedure:
as §1
(In general: Tetrazolium assays rely on reduction of a dye to a coloured formazan, in cell work by metabolically active cells.)

The subject of another data set is lung carcinoma (A549). As to the kind of experiment: Cytotoxic MTT assay, A549. The format is cell-based. Particulars: Homo sapiens, 48 h treatment. On the procedure: as §1
The test system of a further data set is MCF-7. More on the design: method as in Jumaah et al., 65. Particulars: ref Jumaah et al., 65; cited from earlier work.

In brackets after ≈: the same amount, converted by molar mass. Bounds are passed on as bounds.

As usually defined, the IC50 is the point on the concentration scale where inhibition reaches its midpoint. As for 3-(thiophen-2-yl)pyrazol-4-yl)chalcone, the IC50 in the data set on A549 [1] was 66.6 µM; in the data set on HepG2 [2], 64 µM.

Turning to `Cc1ccc(C=CC(=O)c2c(C)nn(-c3ccc([N+](=O)[O-])cc3)c2C)cc1` [1-[3,5-dimethyl-1-(4-nitrophenyl)-1H-pyrazol-4-yl]-3-(p-tolyl) prop-2-en-1-one], the “IC50 A549” value with A549 [3] was 44.3 µg/mL (≈ 123 µM). Besides, the “IC50 HepG2” value in the data set on HepG2 [4] is 57.9 µg/mL (≈ 160 µM).

For `O=c1[nH]cc(F)c(=O)[nH]1` [5 FU, 5-Fluorouracil, reference compound], the 50% inhibitory concentration (IC50) was 77.2 µg/mL (≈ 593 µM) in data set [5], 223 µg/mL (≈ 1710 µM) in [6] and 371 µg/mL (≈ 2850 µM) in the data set on lung carcinoma (A549).

For the compound `COc1ccc2c(/C=C/C(=O)c3cc(OC)c(OC)c(OC)c3)cn(C)c2c1` [(E)-3-(6-methoxy-1-methyl-1H-indol-3-yl)-1-(3,4,5-tri-methoxyphenyl)-prop-2-en-1-one], the IC50 in the data set on MCF-7 is 19.2 µM.

The term melting point denotes the temperature of the solid-liquid transition. In the case of `N#C/C(=C\c1cn(-c2ccccc2)nc1-c1ccccc1)C(=O)c1c[nH]c2ccccc12` [Compound 7a, (E)-3-(1,3-Diphenyl-1H-pyrazol-4-yl)-2-(1H-indole-3-carbonyl)acrylonitrile], the melting point lay in the range of 250 to 252 °C. In [5], the IC50 is 93.1 µg/mL (≈ 225 µM). Also, the IC50 in [6] is more than 100 µg/mL. The same compound displayed an IC50 with lung carcinoma (A549) of more than 100 µg/mL.

For `Cc1ccc(-c2nn(-c3ccccc3)cc2/C=C(\C#N)C(=O)c2c[nH]c3ccccc23)cc1` [Compound 7b, (E)-2-(1H-Indole-3-carbonyl)-3-(1-phenyl-3-(p-tolyl)-1H-pyrazol-4-yl)acrylonitrile], the melting point lay in the range of 288 to 290 °C. In data set [5], this compound showed an IC50 of more than 100 µg/mL. Moreover, the IC50 in [6] was more than 100 µg/mL. In the data set with lung carcinoma (A549), this compound returned an IC50 of more than 100 µg/mL.

Regarding `COc1ccc(-c2nn(-c3ccccc3)cc2/C=C(\C#N)C(=O)c2c[nH]c3ccccc23)cc1` [Compound 7c, (E)-2-(1H-Indole-3-carbonyl)-3-(3-(4-methoxyphenyl)-1-phenyl-1H-pyrazol-4-yl)acrylonitrile], the melting point lay within 252 to 254 °C. For the same compound, the IC50 in data set [5] was more than 100 µg/mL. The same compound displayed an IC50 in data set [6] of more than 100 µg/mL. Also, the IC50 with lung carcinoma (A549) is more than 100 µg/mL.

Turning to `N#C/C(=C\c1cn(-c2ccccc2)nc1-c1ccc(O)cc1)C(=O)c1c[nH]c2ccccc12` [Compound 7d, (E)-3-(3-(4-Hydroxyphenyl)-1-phenyl-1H-pyrazol-4-yl)-2-(1H-indole-3-carbonyl)acrylonitrile], the melting point is 288 to 290 °C. In [5], half-maximal inhibition (IC50) required 43 µg/mL (≈ 99.9 µM). Moreover, the half-inhibitory concentration (IC50) in [6] was more than 100 µg/mL. In the data set with lung carcinoma (A549), this compound displayed an IC50 of more than 100 µg/mL.

In the case of `N#C/C(=C\c1cn(-c2ccccc2)nc1-c1ccc(Cl)cc1)C(=O)c1c[nH]c2ccccc12` [Compound 7e, (E)-3-(3-(4-Chlorophenyl)-1-phenyl-1H-pyrazol-4-yl)-2-(1H-indole-3-carbonyl)acrylonitrile], the melting point lay in the range of 296 to 298 °C. The 50% inhibitory concentration (IC50) in data set [5] was more than 100 µg/mL. Moreover, the half-maximal inhibitory concentration (IC50) in data set [6] is more than 100 µg/mL. Besides, in the data set with lung carcinoma (A549), the IC50 was more than 100 µg/mL.

These data come from article PMC10728220, “Novel 3-(pyrazol-4-yl)-2-(1H-indole-3-carbonyl)acrylonitrile derivatives induce intrinsic and extrinsic apoptotic death mediated P53 in HCT116 colon carcinoma” (Scientific Reports, 2023).
